What was measured:
[1] = Mutagenicity in Salmonella typhimurium TA100 measured at 1.5 to 1000 ug per well for 48 to 72 hrs in presence of S9 liver fraction by mini-Ames test; format: toxicity, subcellular, Salmonella enterica subsp. enterica serovar Typhimurium; details: dose lower 1.5 µg, time lower 48 hrs, dose upper 1000 µg, time upper 72 hrs
[2] = system: A549; assay: Antitumor activity against human A549 cells xenografted in Balb/c nude mouse assessed as tumor growth inhibition at 100 mg/kg, po administered once daily 24 days relative to control; format: functional; details: A549, 576 h, time 24 day, read-out: TGI
[3] = molecular target: T1, Glutaminase kidney isoform, mitochondrial (Homo sapiens) (UniProt O94925); assay: Inhibition of human GAC in A549 cells assessed as induction of ROS level incubated for 16 hrs by DCFH-DA staining based flow cytometric analysis; format: cell-based; details: dose 100-1000 nM
T1 sequence (whole entry): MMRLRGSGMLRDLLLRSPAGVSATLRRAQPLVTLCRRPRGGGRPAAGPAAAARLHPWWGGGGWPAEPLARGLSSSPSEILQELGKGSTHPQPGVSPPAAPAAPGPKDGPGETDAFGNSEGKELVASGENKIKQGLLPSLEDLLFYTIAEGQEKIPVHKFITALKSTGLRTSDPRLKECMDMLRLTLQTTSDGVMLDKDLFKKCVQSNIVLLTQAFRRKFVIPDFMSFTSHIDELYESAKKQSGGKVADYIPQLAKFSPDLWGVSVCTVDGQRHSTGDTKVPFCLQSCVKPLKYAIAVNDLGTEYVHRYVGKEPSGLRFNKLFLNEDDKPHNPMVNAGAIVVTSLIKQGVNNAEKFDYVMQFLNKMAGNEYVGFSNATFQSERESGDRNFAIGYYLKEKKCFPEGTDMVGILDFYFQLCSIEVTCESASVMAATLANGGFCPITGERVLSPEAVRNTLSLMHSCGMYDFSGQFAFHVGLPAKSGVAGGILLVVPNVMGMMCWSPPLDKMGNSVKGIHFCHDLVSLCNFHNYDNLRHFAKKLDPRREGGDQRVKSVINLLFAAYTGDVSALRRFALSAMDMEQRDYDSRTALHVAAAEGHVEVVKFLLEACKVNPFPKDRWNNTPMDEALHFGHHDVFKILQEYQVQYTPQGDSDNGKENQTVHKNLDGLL

[4] = Tmax in Sprague-Dawley rat plasma at 10 mg/kg, iv measured up to 48 hrs by LC-MS/MS analysis; format: ADME, organism-based
[5] = Toxicity in Balb/c nude mouse xenografted with human A549 cells assessed as change in body weight at 100 to 150 mg/kg, po administered once daily 24 days; format: organism-based; details: in vivo, 576 h, dose 100-150 mg/kg, time 24 day
[6] = MRT(0 to t) in Sprague-Dawley rat plasma at 100 mg/kg, po measured up to 48 hrs by LC-MS/MS analysis; format: ADME, organism-based
[7] = MRT(0 to infinity) in Sprague-Dawley rat plasma at 100 mg/kg, po measured up to 48 hrs by LC-MS/MS analysis; format: ADME, organism-based
[8] = Mutagenicity in Salmonella typhimurium TA1535 measured at 1.5 to 1000 ug per well for 48 to 72 hrs by mini-Ames test; format: toxicity, Salmonella enterica subsp. enterica serovar Typhimurium; details: in vivo; dose lower 1.5 µg, time lower 48 hrs, dose upper 1000 µg, time upper 72 hrs
[9] = AUC(0 to infinity) in Sprague-Dawley rat plasma at 10 mg/kg, iv measured up to 48 hrs by LC-MS/MS analysis; format: ADME, organism-based; set-up: dose 10 mg/kg, time < 48 hrs, route iv
[10] = molecular target: Voltage-dependent L-type calcium channel subunit alpha-1C (Homo sapiens, UniProt Q13936); assay: Inhibition of Cav1.2 channel (unknown origin) incubated for 30 mins by Fluo-4 staining based FLIPR assay; format: toxicity; details: 0.5 h
Chain of Voltage-dependent L-type calcium channel subunit alpha-1C (Q13936 whole entry): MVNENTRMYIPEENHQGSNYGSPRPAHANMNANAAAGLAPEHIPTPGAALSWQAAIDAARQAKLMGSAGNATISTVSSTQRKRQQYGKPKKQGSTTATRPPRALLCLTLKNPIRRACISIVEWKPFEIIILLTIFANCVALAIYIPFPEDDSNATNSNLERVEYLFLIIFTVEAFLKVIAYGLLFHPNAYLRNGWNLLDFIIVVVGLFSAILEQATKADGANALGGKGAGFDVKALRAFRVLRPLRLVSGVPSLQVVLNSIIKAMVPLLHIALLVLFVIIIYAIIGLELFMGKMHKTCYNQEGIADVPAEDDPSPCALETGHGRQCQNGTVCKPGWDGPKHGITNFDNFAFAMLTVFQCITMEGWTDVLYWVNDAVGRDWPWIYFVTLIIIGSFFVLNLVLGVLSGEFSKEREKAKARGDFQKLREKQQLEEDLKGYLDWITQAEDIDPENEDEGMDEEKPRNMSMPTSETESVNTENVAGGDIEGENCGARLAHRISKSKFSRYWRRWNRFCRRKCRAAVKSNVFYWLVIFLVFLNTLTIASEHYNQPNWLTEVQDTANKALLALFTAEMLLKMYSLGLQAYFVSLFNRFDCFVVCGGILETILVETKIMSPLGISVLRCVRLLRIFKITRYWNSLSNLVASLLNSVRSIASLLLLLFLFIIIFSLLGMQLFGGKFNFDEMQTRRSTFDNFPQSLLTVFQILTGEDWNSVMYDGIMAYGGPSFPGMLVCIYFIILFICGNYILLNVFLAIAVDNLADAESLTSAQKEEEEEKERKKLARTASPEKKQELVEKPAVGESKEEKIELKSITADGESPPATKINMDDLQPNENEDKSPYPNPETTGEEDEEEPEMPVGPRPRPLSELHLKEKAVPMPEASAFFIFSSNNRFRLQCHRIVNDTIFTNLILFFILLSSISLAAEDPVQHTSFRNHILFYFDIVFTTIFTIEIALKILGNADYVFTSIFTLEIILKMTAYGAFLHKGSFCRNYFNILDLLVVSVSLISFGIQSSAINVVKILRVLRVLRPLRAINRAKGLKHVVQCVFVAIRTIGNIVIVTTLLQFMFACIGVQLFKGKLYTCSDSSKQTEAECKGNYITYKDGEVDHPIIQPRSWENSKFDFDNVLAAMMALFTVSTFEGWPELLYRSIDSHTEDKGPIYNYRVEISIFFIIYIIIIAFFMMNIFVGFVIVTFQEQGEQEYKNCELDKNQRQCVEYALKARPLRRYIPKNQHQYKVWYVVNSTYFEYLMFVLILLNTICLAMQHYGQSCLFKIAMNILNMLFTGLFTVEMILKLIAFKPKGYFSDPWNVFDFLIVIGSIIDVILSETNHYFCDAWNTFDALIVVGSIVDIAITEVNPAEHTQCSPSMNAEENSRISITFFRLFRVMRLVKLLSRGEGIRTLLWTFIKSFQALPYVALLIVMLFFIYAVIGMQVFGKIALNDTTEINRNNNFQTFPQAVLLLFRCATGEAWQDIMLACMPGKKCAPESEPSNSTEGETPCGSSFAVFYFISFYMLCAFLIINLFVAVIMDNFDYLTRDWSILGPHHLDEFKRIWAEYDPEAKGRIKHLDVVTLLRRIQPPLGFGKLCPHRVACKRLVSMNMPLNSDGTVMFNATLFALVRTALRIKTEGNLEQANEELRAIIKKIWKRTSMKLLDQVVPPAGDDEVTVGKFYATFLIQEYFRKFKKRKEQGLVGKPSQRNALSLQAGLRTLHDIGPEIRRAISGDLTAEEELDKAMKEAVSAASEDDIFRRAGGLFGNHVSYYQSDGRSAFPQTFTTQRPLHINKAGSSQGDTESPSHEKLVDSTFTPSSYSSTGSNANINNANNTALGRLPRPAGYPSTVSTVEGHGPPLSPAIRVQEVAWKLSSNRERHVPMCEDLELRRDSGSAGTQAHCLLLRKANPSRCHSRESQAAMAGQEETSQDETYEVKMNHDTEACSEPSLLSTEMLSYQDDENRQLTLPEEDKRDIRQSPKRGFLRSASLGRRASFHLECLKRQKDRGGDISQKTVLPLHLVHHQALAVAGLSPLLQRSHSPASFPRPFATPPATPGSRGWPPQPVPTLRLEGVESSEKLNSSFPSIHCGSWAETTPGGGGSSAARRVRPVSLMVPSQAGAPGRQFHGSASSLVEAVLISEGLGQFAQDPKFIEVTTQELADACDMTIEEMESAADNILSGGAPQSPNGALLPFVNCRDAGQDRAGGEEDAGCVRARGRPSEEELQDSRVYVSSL

O=C(Cc1cccc(Oc2ccccc2)c1)Nc1nnc(N[C@@H]2CCN(c3cccnn3)C2)s1
Activity [1]: Non-Toxic | inhibition in vivo at 100 mg/kg [2]: 51.4% | inhibition [3]: Dose-Dependent Effect | Tmax [4]: 1.98 min | Activity [5]: Non-Toxic | MRT last at 48 h [6]: 3.73 h | MRT inf [7]: 3.83 h | Activity [8]: Non-Toxic | AUC(0-inf) [9]: 4630 ng·h/mL | INH [10]: 21.71 µM
